≈ marks a conversion by molar mass, not a printed value. Where “and” joins values, the source holds several entries; their conditions need not be identical. Equal values may be shown once. Read-outs that look alike come from different tables or passages of the source. Bridge positions count the residues as written; N and C are the ends. Square brackets hold non-standard residues; d marks the D form. Ends that are not written are not given here. Peptide text beside a SMILES is read from it. I, II: the chains in the order shown. Ahx = NCCCCCC(=O)O
Legend:
[1] = test system: human erythrocytes; test: Hemolytic activity; assay type: cell-based
Description: Human erythrocytes collected from the blood samples of healthy humans were harvested by centrifugation for 7 min at 162 × g and washed three times in phosphate-buffered saline (PBS). The erythrocytes (2% hematocrit in PBS) were incubated with peptide molecules at several concentrations (6.25, 12.5, 25, 50, and 100 μM) for 2 h at 37°C. PBS was used as negative control for hemolysis, and sterile distilled water was used as positive control (100% hemolysis). The plate was subsequently centrifuged at 1,459 × g for 10 min at 4°C. Aliquots of the supernatant from each well (75 μL) were carefully transferred to a new sterile 96-well plate, and hemolytic activity was evaluated by measuring the OD492 using an Asys Expert Plus Microplate reader. The experiments were performed in duplicate, and hemolytic activity was calculated for each peptide.

[2] = test system: clinical isolates of Gram-positive bacteria (Enteroccocus faecium, Staphylococcus aureus); test: Therapeutic index, Gram-positive clinical isolates; conditions: for Fold (GM peptide / GM tetrameric peptide): Gram-positive clinical isolates
Text: (§1) We determined the therapeutic index of each peptide, which we defined as the ratio of Maximum Hemolytic Activity (Hmax) to MIC50 (Hmax/MIC50).
(§2) The results are shown in Table 7 (Gram-positive) and Table 8 (Gram-negative). Regarding the Gram-positive bacteria, the palindromic, dimeric and tetrameric peptides were active chiefly against S. aureus. This trend was consistent with results of the experiments on the ATCC strains, in which these peptides were only active against the sensitive strain of the […] bacteria.

[3] = test system: Gram-negative ATCC strains (K. pneumoniae 13883 and 700603, P. aeruginosa 10145 and 27853); conditions: for Fold (GM peptide / GM tetrameric peptide): Gram-negative ATCC strains
Text: as §1
The therapeutic index (TI) is a ratio of the toxic dose of a substance to its therapeutically-active dose and can be calculated different ways (e.g., LD50/ED50). Here, we calculated a TI value for each peptide against all the Gram-positive or the Gram-negative ATCC strains, by dividing its Hmax by its MIC50 for the given group of strains. […] Additionally, to make our quantitative analysis more robust [geometric mean (Khachatryan et al., [2017]) and fold values], we have included MIC50 values for these peptides against S. aureus and K. pneumoniae that we previously obtained using the same assay, the M7-A7 method of the National Committee for Clinical Laboratory Standards (Leon-Calvijo et al., [2015]).

[4] = test system: clinical isolates of Gram-negative bacteria (Klebsiella pneumoniae, Pseudomonas aeruginosa); test: Therapeutic index, Gram-negative clinical isolates; conditions: for Fold (GM peptide / GM tetrameric peptide): Gram-negative clinical isolates
Text: as §1, §2

[5] = test system: Klebsiella pneumoniae clinical isolate 51,048; assay type: cell-based
Description: (§3) For the clinical isolates, we used 20 different isolates from the Public Health Reference Laboratory collection of the Secretaría de Salud del Distrito (SdSD; Bogotá, Colombia). The samples were collected from June to December 2016. For each isolate, the patient parameters (age, gender and location) and the culture site were recorded for epidemiologic monitoring (Table 1). All isolates had been previously tested for antibiotic sensitivity at the Public Health Microbiology Laboratory using either the Phoenix™ system (Gram-positive) or the VITEK 2 system (Gram-negative).
(§4) We screened all five peptides against the ATCC reference strains and the clinical isolates according to Method M7-A7 of the National Committee for Clinical Laboratory Standards (CLSI, [2007]). The MIC50 and MBC values were determined using a broth microdilution and growth inhibition method previously reported by Leon-Calvijo et al. ([2015]), with some modifications (Wiegand et al., [2008]). Briefly, the MIC50 experiments comprised a liquid-inhibition growth assay in a sterile, untreated, 96-well flat-bottom tissue culture plate. The bacteria were cultured overnight n Mueller Hinton agar; three colonies were transferred to 8 mL of Mueller Hilton broth and incubated at 37°C until the mid-exponential phase of growth. The turbidity of the cultures was measured and adjusted spectrophotometrically to a McFarland standard of 0.5, and then diluted to a final concentration of 5 × 10^7 colony forming units (CFU) per well. Stock solutions (2,000 μM) of each test peptide were serially diluted to final concentrations (per well) of 200, 100, 50, 25, 12.5, and 6.25 μM. Each concentration was evaluated in duplicate and each assay was performed in triplicate.
(§5) Wells containing Mueller Hilton broth with bacterial inoculum only served as bacterial-growth controls. Additional controls included Mueller Hilton broth alone (as blank) and Mueller Hilton broth with ciprofloxacin (2 μg/mL; as positive control). The microplate was incubated for 24 h at 37°C, and growth inhibition was measured by monitoring the optical density at 620 nm (OD620). The MIC50 was defined as the peptide concentration at which bacterial growth was inhibited by 50%.
(§6) To determine the MBC, an aliquot from each well of the MIC50 assay was spread onto Mueller Hilton agar. After 18 h at 37°C, the concentration that inhibited bacterial growth was determined. Each of these tests was performed four times. MBC was defined as the lowest concentration of peptide at which the number of bacteria was reduced by 99.9% in vitro (European Committee for Antimicrobial Susceptibility Testing, [2000]).

[6] = test system: Pseudomonas aeruginosa clinical isolate 47,661; assay type: cell-based
Description: as §3, §4, §5, §6

[7] = test system: Staphylococcus aureus clinical isolate 43,062; assay type: cell-based
Description: as §3, §4, §5, §6

[8] = test system: Enterococcus faecalis ATCC 29212 (sensitive); assay type: cell-based; conditions: for Bacterial viability (lowest value observed): untreated control = 100%, Figure 2A
Description: as §4, §5, §6

[9] = test system: Enterococcus faecalis ATCC 51575 (resistant); assay type: cell-based; conditions: for Bacterial viability (lowest value observed): untreated control = 100%, Figure 2B
Description: as §4, §5, §6

[10] = test system: Pseudomonas aeruginosa ATCC 27853 (resistant); assay type: cell-based
Description: as §4, §5, §6

[11] = test system: Pseudomonas aeruginosa ATCC 10145 (sensitive); assay type: cell-based
Description: as §4, §5, §6

[12] = K. pneumoniae isolate 51,048, broth microdilution, 24 h 37°C, OD620, 50% growth inhibition
[13] = K. pneumoniae isolate 51,048, plated on agar 18 h 37°C, 99.9% reduction
[14] = P. aeruginosa isolate 47,661, broth microdilution, 24 h 37°C, OD620, 50% growth inhibition
[15] = P. aeruginosa isolate 47,661, plated on agar 18 h 37°C, 99.9% reduction
[16] = S. aureus isolate 43,062, broth microdilution, 24 h 37°C, OD620, 50% growth inhibition
[17] = S. aureus isolate 43,062, plated on agar 18 h 37°C, 99.9% reduction
[18] = E. faecalis ATCC 29212 sensitive, aliquots of MIC50 wells on Mueller Hinton agar, 18 h 37°C, 99.9% reduction
[19] = E. faecalis ATCC 29212 sensitive, broth microdilution, Mueller Hinton broth, 24 h 37°C, OD620, concentration inhibiting growth by 50%
[20] = E. faecalis ATCC 51575 resistant, broth microdilution, 24 h 37°C, OD620, 50% growth inhibition
[21] = E. faecalis ATCC 51575 resistant, plated on Mueller Hinton agar, 18 h 37°C, 99.9% reduction
[22] = P. aeruginosa ATCC 27853 resistant, broth microdilution, 24 h 37°C, OD620, 50% growth inhibition
[23] = P. aeruginosa ATCC 27853 resistant, plated on Mueller Hinton agar, 18 h 37°C, 99.9% reduction
[24] = P. aeruginosa ATCC 10145 sensitive, broth microdilution, 24 h 37°C, OD620, 50% growth inhibition
[25] = P. aeruginosa ATCC 10145 sensitive, plated on Mueller Hinton agar, 18 h 37°C, 99.9% reduction

N=C(N)NCCC[C@H](NC(=O)[C@H](Cc1c[nH]c2ccccc12)NC(=O)[C@H](CCC(N)=O)NC(=O)[C@H](Cc1c[nH]c2ccccc12)NC(=O)[C@H](CCCNC(=N)N)NC(=O)[C@@H](N)CCCNC(=N)N)C(=O)NCCCC[C@H](NC(=O)[C@H](CCCNC(=N)N)NC(=O)[C@H](Cc1c[nH]c2ccccc12)NC(=O)[C@H](CCC(N)=O)NC(=O)[C@H](Cc1c[nH]c2ccccc12)NC(=O)[C@H](CCCNC(=N)N)NC(=O)[C@@H](N)CCCNC(=N)N)C(=O)NCCCCCC(N)=O [LfcinB (20–25)2] (I: H-RRWQWRK[Ahx]-NH2 / II: H-RRWQWR; amide I:7-II:C; N-terminus assumed)
H50, concentration of peptide leading to 50% hemolysis ([1]; red cells of human, 2 h): >100 µM | Gm, geometric mean of MIC50 values [2]: 16.4 | Fold (GM peptide / GM tetrameric peptide) [2]: 2.4 | Gm, geometric mean of MIC50 values [3]: 16.1 | Fold (GM peptide / GM tetrameric peptide) [3]: 1.2 | Gm, geometric mean of MIC50 values [4]: 16.8 µM | Fold (GM peptide / GM tetrameric peptide) [4]: 1.7 | MBC ([5]; clinical isolate 51,048, 18 h): 100.0 µM (≈ 220 µg/mL) | MIC50 ([5]; clinical isolate 51,048, 24 h): 5.7 µM (≈ 12.5 µg/mL) | MBC ([6]; clinical isolate 47,661, 18 h): >100 µM | MIC50 ([6]; clinical isolate 47,661, 24 h): 13.4 µM (≈ 29.4 µg/mL) | MBC ([7]; clinical isolate 43,062, 18 h): 50.0 µM (≈ 110 µg/mL) | MIC50 ([7]; clinical isolate 43,062, 24 h): 13.5 µM (≈ 29.7 µg/mL) | Bacterial viability (lowest value observed) ([8]; 25 μM): 40.9% | MBC ([8]; ATCC 29212, 18 h): 100.0 µM (≈ 220 µg/mL) | MIC50 ([8]; ATCC 29212, 24 h): 13.1 µM (≈ 28.8 µg/mL) | MBC relative to MBC of the tetrameric peptide (× MBCtet) ([8]; sensitive E. faecalis strain): 4 × MBCtet | Bacterial viability (lowest value observed) ([9]; 25.0 μM): 65.3% | MBC ([9]; ATCC 51575, 18 h): >200.0 µM | MIC50 ([9]; ATCC 51575, 24 h): >200.0 µM | MBC ([10]; ATCC 27853, 18 h): 200.0 µM (≈ 439 µg/mL) | MIC50 ([10]; ATCC 27853, 24 h): 34.8 µM (≈ 76.4 µg/mL) | MBC relative to MBC of the tetrameric peptide (× MBCtet) ([10]; resistant P. aeruginosa strain): 4 × MBCtet | MBC ([11]; ATCC 10145, 18 h): 100.0 µM (≈ 220 µg/mL) | MIC50 ([11]; ATCC 10145, 24 h): 29.1 µM (≈ 63.9 µg/mL) | MBC relative to MBC of the tetrameric peptide (× MBCtet) ([11]; sensitive P. aeruginosa strain): 4 × MBCtet

(RRWQWR)4K2Ahx2C2 (disulfide) [LfcinB (20–25)4, branched tetrameric peptide (RRWQWR)4K2Ahx2C2, two dimers linked by a cysteine disulfide bridge]
Hmax relative to that of the dimer [1]: 8 x | Fold (GM peptide / GM tetrameric peptide) [2]: 1.0 | Gm, geometric mean of MIC50 values ([2]; Gram-positive clinical isolates (E. faecium, S. aureus) with a printed MIC50): 7.0 | Fold (GM peptide / GM tetrameric peptide) [3]: 1.0 | Gm, geometric mean of MIC50 values ([3]; Gram-negative ATCC strains 13883, 700603, 10145, 27853, in µM): 13.1 | Fold (GM peptide / GM tetrameric peptide) [4]: 1.0 | Gm, geometric mean of MIC50 values ([4]; Gram-negative clinical isolates (K. pneumoniae, P. aeruginosa) with a printed MIC50): 9.7 µM | MIC50 [5, 12]: 5.2 µM | MBC [5, 13]: 50.0 µM | MIC50 [6, 14]: 7.5 µM | MBC [6, 15]: 25.0 µM | MIC50 [7, 16]: 6.7 µM | MBC [7, 17]: 12.5 µM | Bacterial viability (lowest value observed) ([8]; 6.2 μM): 48.9% | MBC [8, 18]: 25.0 µM | MIC50 [8, 19]: 3.1 µM | Bacterial viability (lowest value observed) ([9]; 12.5 μM): 62.4% | MIC50 [9, 20]: >200.0 µM | MBC [9, 21]: >200.0 µM | MIC50 [10, 22]: 21.7 µM | MBC [10, 23]: 50.0 µM | MIC50 [11, 24]: 18.1 µM | MBC [11, 25]: 50.0 µM

RRWQWR-NH2 [LfcinB (20–25), reference compound]
Hmax, maximum hemolytic activity ([1]; human red blood cells, 2% hematocrit in PBS, 2 h 37°C, OD492, peptide 6.25-100 μM, concentration of the maximum in the column beside, duplicate): 7.1% | H50, concentration of peptide leading to 50% hemolysis ([1]; human red blood cells, 2 h 37°C, highest concentration tested 100 μM): >100 µM | Peptide concentration corresponding to Hmax ([1]; human red blood cells, 2 h 37°C, used as MHC in the therapeutic index): 25 µM and 25.0 µM | MIC50 [5, 12]: >100 µM | MBC [5, 13]: >100 µM | MIC50 [6, 14]: >100 µM | MBC [6, 15]: >100 µM | MIC50 [7, 16]: 5.1 µM | MBC [7, 17]: >100 µM | MBC [8, 18]: >200.0 µM | MIC50 [8, 19]: >200.0 µM | MIC50 [9, 20]: 198.0 µM | MBC [9, 21]: >200.0 µM | MIC50 [10, 22]: >200.0 µM | MBC [10, 23]: >200.0 µM | MIC50 [11, 24]: >200.0 µM | MBC [11, 25]: >200.0 µM

Source: publication PMC5840262, “Design, Synthesis and Evaluation of Branched RRWQWR-Based Peptides as Antibacterial Agents Against Clinically Relevant Gram-Positive and Gram-Negative Pathogens” (Frontiers in Microbiology, 2018)
